The assay has as its target T1, BiP (GRP78) (Homo sapiens, UniProt P11021).
T1 construct: gene HSPA5; recombinant His-GST-BiP (BiP-N-His-GST), expressed in E. coli
Put plainly: SPR (Biacore T200, His-capture plus amine coupling on NTA chip). The assay is classed as binding. On the technique in general: Surface plasmon resonance follows binding to a sensor surface in real time, without labels.

T1 sequence (P11021 19-654): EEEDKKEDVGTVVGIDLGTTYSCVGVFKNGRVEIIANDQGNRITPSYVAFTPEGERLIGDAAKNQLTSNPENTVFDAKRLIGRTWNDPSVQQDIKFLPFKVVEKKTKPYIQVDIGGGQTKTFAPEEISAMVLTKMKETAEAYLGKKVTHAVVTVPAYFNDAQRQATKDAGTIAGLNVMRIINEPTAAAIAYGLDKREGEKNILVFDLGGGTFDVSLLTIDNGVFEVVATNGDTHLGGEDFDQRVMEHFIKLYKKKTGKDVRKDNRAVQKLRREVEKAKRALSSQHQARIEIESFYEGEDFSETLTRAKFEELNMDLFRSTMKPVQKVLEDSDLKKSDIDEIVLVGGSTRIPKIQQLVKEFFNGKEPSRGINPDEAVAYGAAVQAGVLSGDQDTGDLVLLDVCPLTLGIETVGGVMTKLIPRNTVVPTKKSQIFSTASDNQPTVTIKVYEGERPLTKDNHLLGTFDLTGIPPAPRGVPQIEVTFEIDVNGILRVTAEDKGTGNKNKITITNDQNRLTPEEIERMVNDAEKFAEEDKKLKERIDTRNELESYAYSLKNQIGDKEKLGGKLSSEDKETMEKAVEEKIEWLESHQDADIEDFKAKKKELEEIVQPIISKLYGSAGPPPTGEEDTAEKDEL

Regarding `COc1c(O)cc2oc3cc(O)c(CC=C(C)C)c(O)c3c(=O)c2c1CC=C(C)C` [α-Mangostin], the Kd – broadly, the equilibrium constant for the complex coming apart – was found to be 21.7 µM.

The record behind these values is PMC10093438, “α-Mangostin Promotes In Vitro and In Vivo Degradation of Androgen Receptor and AR-V7 Splice Variant in Prostate Cancer Cells” (Cancers, 2023).
